Our source for the IC50 values is patent US20200253978A1, “HETEROCYCLICS AS INHIBITORS OF FIBROBLAST GROWTH FACTOR RECEPTOR” (ADVENT PHARMA CO. LTD., priority 2017, published 2020).

The target of assay [1] is T1, BaF3 cells expressing Tel-FGFR-4 and luciferase (Homo sapiens, UniProt P22455).
T1 construct: Luciferase is co-expressed as a viability reporter and is not part of the key; P41212 (Transcription factor ETV6)
Kind of assay: BaF3 cellular growth inhibition assay, Tel-FGFR-4 and luciferase (Bright-Glo). As to conditions: BaF3 Tel-FGFR-4 cells, 2 days incubation, 50% growth inhibition vs DMSO. In kind it is cell-based. Here is the method:
(§1) Compounds' inhibitory activities against FGFR-4 or FGFR-1 were measured in BaF3 cells expressing Tel-FGFR-4 and luciferase or Tel-FGFR-1 and luciferase, whose growth was dependent on FGFR-4 or FGFR-1 kinase but independent of IL-3. The cells were plated in 384-well plates in RPMI1640 with 10% FBS. Compounds were added as 11-point dilutions. Cell viability was determined by Bright-Glo luciferase assay (Promega) after cells were incubated with compounds for 2 days. The IC50 value was determined as the concentration for 50% growth inhibition compared to DMSO treated cells (A: IC50<0.1 μM; B: IC50 between 0.1 μM and 1 μM; C: IC50 between 1 μM and 10 μM).

In assay [2] the target is T2, BaF3 cells expressing Tel-FGFR-1 and luciferase (Homo sapiens, UniProt P11362).
T2 construct: Luciferase is co-expressed as a viability reporter and is not part of the key; P41212 (Transcription factor ETV6)
Put plainly: BaF3 cellular growth inhibition assay, Tel-FGFR-1 and luciferase (Bright-Glo). As to conditions: BaF3 Tel-FGFR-1 cells, 2 days incubation, 50% growth inhibition vs DMSO; numeric bounds. Type of assay: cell-based. The method, then:
as §1

T2 sequence (P11362 478-767 limits assumed): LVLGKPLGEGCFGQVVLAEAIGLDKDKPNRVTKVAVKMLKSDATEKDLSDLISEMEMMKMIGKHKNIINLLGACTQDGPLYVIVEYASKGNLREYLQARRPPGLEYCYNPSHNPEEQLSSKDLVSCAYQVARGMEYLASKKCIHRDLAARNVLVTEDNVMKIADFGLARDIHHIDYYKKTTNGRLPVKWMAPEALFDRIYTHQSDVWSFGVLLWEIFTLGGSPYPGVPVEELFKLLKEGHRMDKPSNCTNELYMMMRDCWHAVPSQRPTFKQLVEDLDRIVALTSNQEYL
T1 sequence (P22455 467-755 limits assumed): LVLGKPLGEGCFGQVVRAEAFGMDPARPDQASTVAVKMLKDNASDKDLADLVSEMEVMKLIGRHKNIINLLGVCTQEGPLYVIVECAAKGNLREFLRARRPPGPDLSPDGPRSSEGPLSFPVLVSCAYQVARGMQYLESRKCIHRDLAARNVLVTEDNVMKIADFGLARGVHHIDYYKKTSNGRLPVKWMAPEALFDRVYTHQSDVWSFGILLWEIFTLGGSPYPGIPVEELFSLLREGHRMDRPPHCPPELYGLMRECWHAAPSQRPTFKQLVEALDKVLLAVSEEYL

One may read the IC50 as the concentration that inhibits the measured activity by half. `C=CC(=O)Nc1cc(N2CCN(CC)CC2)ccc1Nc1cc2cc(C(C)(O)c3c(F)c(OC)cc(OC)c3F)oc2cn1` (racemic) [Example 7, (±)-N-(2-((2-(1-(2,6-difluoro-3,5-dimethoxyphenyl)-1-hydroxyethyl)furo[2,3-c]pyridin-5-yl)amino)-5-(4-ethylpiperazin-1-yl)phenyl)acrylamide]: the IC50 is 0.1 to 1 µM in assay [1] and > 10 µM in assay [2].

For `C=CC(=O)Nc1cccc(Cl)c1Nc1cc2cc(C(O)c3c(F)c(OC)cc(OC)c3F)oc2cn1` (racemic) [Example 29, (±)-N-(3-chloro-2-((2-((2,6-difluoro-3,5-dimethoxyphenyl)(hydroxy)methyl)furo[2,3-c]pyridin-5-yl)amino)phenyl)acrylamide], the half-inhibitory concentration (IC50) in assay [1] is < 0.1 µM; in assay [2], > 10 µM.

As to `C=CC(=O)Nc1cc(N2CCN(CC)CC2)ccc1Nc1cc2cc(C(F)(F)c3c(F)c(OC)cc(OC)c3F)oc2cn1` [Example 8, N-(2-((2-((2,6-difluoro-3,5-dimethoxyphenyl)difluoromethyl)furo[2,3-c]pyridin-5-yl)amino)-5-(4-ethylpiperazin-1-yl)phenyl)acrylamide], the values for the IC50 in assay [1] and in assay [2] were 0.1 to 1 µM and > 10 µM, respectively.

Consider `C=CC(=O)N[C@H]1CCOC[C@H]1Nc1cc2cc(C(O)c3c(F)c(OC)cc(OC)c3F)oc2cn1` (mixture of isomers) [Example 14, (±)N-((3S,4S)-3-((2-((2,6-difluoro-3,5-dimethoxyphenyl)(hydroxy)methyl)furo[2,3-c]pyridin-5-yl)amino)tetrahydro-2H-pyran-4-yl)acrylamide], for which the IC50 in assay [1] is 0.1 to 1 µM; in assay [2] it was > 10 µM.

As for `C=CC(=O)Nc1cccc(C(F)(F)F)c1Nc1cc2cc(C(=O)c3c(F)c(OC)cc(OC)c3F)oc2cn1` [Example 25, N-(2-((2-(2,6-difluoro-3,5-dimethoxybenzoyl)furo[2,3-c]pyridin-5-yl)amino)-3-(trifluoromethyl)phenyl)acrylamide], the figures for the concentration for half-maximal inhibition (IC50) in assay [1] and in assay [2] were 0.1 to 1 µM and > 3.3 µM, respectively.

Turning to `C=CC(=O)Nc1cc(N2CCN(CC)CC2)ccc1Nc1cc2c(O)c(C(=O)c3c(F)c(OC)cc(OC)c3F)oc2cn1` [Example 36, N-(2-((2-(2,6-difluoro-3,5-dimethoxybenzoyl)-3-hydroxyfuro[2,3-c]pyridin-5-yl)amino)-5-(4-ethylpiperazin-1-yl)phenyl)acrylamide], the IC50 in assay [1] is 1 to 10 µM; in assay [2] it was > 10 µM.

With `C=CC(=O)Nc1cccc(C(F)(F)F)c1Nc1cc2cc(C(O)c3c(F)c(OC)cc(OC)c3F)oc2cn1` (racemic) [Example 30, (±)-N-(2-((2-((2,6-difluoro-3,5-dimethoxyphenyl)(hydroxy)methyl)furo[2,3-c]pyridin-5-yl)amino)-3-(trifluoromethyl)phenyl)acrylamide], the IC50 in assay [1] was 0.1 to 1 µM; in assay [2], > 10 µM.
